Laboratory results published in US20250197403A1, “HETEROARYL COMPOUNDS FOR TREATMENT OF COMPLEMENT FACTOR D MEDIATED DISORDERS” (Achillion Pharmaceuticals, Inc., priority 2020, published 2025).

molecular target: Human Factor D (Homo sapiens (Human), UniProt P00746); test: Human Factor D Assay; assay type: biochemical; conditions: Human Factor D 80 nM, substrate Z-L-Lys-SBzl, assay according to Example 3
Method: The assay according to Example 3 was used to determine the IC50's of the compounds. Other standard factor D inhibition assays are also available.
Human Factor D (purified from human serum, Complement Technology, Inc.) at 80 nM final concentration is incubated with test compound at various concentrations for 5 min at room temperature in 50 mM Tris, 1M NaCl, pH 7.5. A synthetic substrate Z-L-Lys-SBzl and DTNB (Ellman's reagent) are added to final concentrations of 100 μM each. Absorbance at 405 nm (A405) is recorded at 30 second intervals for 30 min using a microplate spectrophotometer. IC50 values are calculated by nonlinear regression of complement Factor D reaction rates as a function of test compound concentration.

Chain of Human Factor D (P00746 26-253): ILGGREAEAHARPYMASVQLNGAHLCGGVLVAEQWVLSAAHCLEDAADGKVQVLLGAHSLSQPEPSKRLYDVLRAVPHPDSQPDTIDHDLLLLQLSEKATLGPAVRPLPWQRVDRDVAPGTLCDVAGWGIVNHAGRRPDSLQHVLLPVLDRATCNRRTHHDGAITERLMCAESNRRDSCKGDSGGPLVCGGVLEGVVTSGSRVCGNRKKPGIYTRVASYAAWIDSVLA

| SMILES | IC50 |
| --- | --- |
| CC(=O)c1cn(CC(=O)N2C[C@H](F)C[C@H]2C(=O)N[C@@H](C)C(F)=C(C)C)c2c(C)cc(-c3cnc4cc(C)nn4c3)cc12 [Compound 37, (2S,4R)-1-(2-(3-acetyl-7-methyl-5-(2-methylpyr-azolo[1,5-a]pyrimidin-6-yl)-1H-indol-1-yl)acetyl)-4-fluoro-N-((S)-3-fluoro-4-methylpent-3-en-2-yl)pyr-rolidine-2-carboxamide] | < 1000 nM |
| CC(=O)c1cn(CC(=O)N2C[C@H]3C[C@H]3[C@H]2C(=O)N[C@@H](C)C(F)=C(C)C)c2c(C)cc(-c3cnc4cc(C)nn4c3)cc12 [Compound 38, (1R,2S,5S)-3-(2-(3-acetyl-7-methyl-5-(2-methylpyr-azolo[1,5-a]pyrimidin-6-yl)-1H-indol-1-yl)acetyl)-N-((S)-3-fluoro-4-methyl-pent-3-en-2-yl)-3-azabi-cyclo[3.1.0]hexane-2-car-boxamide] | < 1000 nM |
| CC(=O)c1cn(CC(=O)N2[C@H](C(=O)N[C@@H](C)C(F)=C(C)C)C[C@@]3(C)C[C@@H]23)c2c(C)nc(-c3cnc(C)nc3)cc12 [Compound 39, (1R,3S,5R)-2-(2-(3-acetyl-7-methyl-5-(2-methylpyr-imidin-5-yl)-1H-pyrrolo [2,3-c]pyridin-1-yl)acetyl)-N-((S)-3-fluoro-4-methyl-pent-3-en-2-yl)-5-methyl-2-azabicyclo[3.1.0]hexane-3-carboxamide] | < 1000 nM |
| COCc1ccc(C(F)(F)F)nc1NC(=O)[C@@H]1C[C@@]2(C)C[C@H]2N1C(=O)Cn1cc(C(C)=O)c2cc(-c3ccc4nc(C)nn4c3)cc(C)c21 [Compound 40, (1R,3S,5R)-2-(2-(3-acetyl-7-methyl-5-(2-methyl-[1,2,4]triazolo[1,5-a]pyr-idin-6-yl)-1H-indol-1-yl)-acetyl)-N-(3-(methoxy-methyl)-6-(trifluorometh-yl)pyridin-2-yl)-5-methyl-2-azabicyclo[3.1.0]hexane-3-carboxamide] | < 1000 nM |
| COCc1ccc(C(F)(F)F)nc1NC(=O)[C@@H]1C[C@@]2(C)C[C@H]2N1C(=O)Cn1cc(C(C)=O)c2cc(-c3cnc(C)nc3)nc(C)c21 [Compound 41, (1R,3S,5R)-2-(2-(3-acetyl-7-methyl-5-(2-methylpyr-imidin-5-yl)-1H-pyrrolo [2,3-c]pyridin-1-yl)acetyl)-N-(3-(methoxymethyl)-6-(trifluoromethyl)pyridin-2-yl)-5-methyl-2-azabicyclo [3.1.0]hexane-3-carbox-amide] | < 1000 nM |
| CC(=O)c1cn(CC(=O)N2[C@H](C(=O)Nc3nc(C(F)(F)F)ccc3Cl)C[C@@]3(C)C[C@@H]23)c2c(C)nc(-c3cnc(C)nc3)cc12 [Compound 42, (1R,3S,5R)-2-(2-(3-acetyl-7-methyl-5-(2-methylpyr-imidin-5-yl)-1H-pyrrolo [2,3-c]pyridin-1-yl)acetyl)-N-(3-chloro-6-(trifluoro-methyl)pyridin-2-yl)-5-methyl-2-azabicyclo[3.1.0] hexane-3-carboxamide] | < 1000 nM |
| CC(=O)c1cn(CC(=O)N2[C@H](C(=O)Nc3nc(C(F)(F)F)ccc3C)C[C@@]3(C)C[C@@H]23)c2c(CO)cc(-c3cnc4cc(C)nn4c3)cc12 [Compound 43, (1R,3S,5R)-2-(2-(3-acetyl-7-(hydroxymethyl)-5-(2-methylpyrazolo[1,5-a]pyr-imidin-6-yl)-1H-indol-1-yl)acetyl)-5-methyl-N-(3-methyl-6-(trifluorometh-yl)pyridin-2-yl)-2-azabi-cyclo[3.1.0]hexane-3-car-boxamide] | < 1000 nM |
| CC(=O)c1cn(CC(=O)N2[C@H](C(=O)Nc3nc(C(F)(F)F)ccc3C)C[C@@]3(C)C[C@@H]23)c2c(C)c(F)c(-c3cnc(C)nc3)cc12 [Compound 44, (1R,3S,5R)-2-(2-(3-acetyl-6-fluoro-7-methyl-5-(2-methylpyrimidin-5-yl)-1H-indol-1-yl)acetyl)-5-meth-yl-N-(3-methyl-6-(tri-fluoromethyl)pyridin-2-yl)-2-azabicyclo[3.1.0] hexane-3-carboxamide] | < 1000 nM |
| CC(=O)c1cn(CC(=O)N2[C@H](C(=O)Nc3cncc(C(F)(F)F)n3)C[C@@]3(C)C[C@@H]23)c2c(C)cc(-c3cnc(C)nc3)cc12 [Compound 45, (1R,3S,5R)-2-(2-(3-acetyl-7-methyl-5-(2-methylpyr-imidin-5-yl)-1H-indol-1-yl)acetyl)-5-methyl-N-(6-(trifluoromethyl)pyrazin-2-yl)-2-azabicyclo[3.1.0] hexane-3-carboxamide] | < 1000 nM |
| CC(=O)c1cn(CC(=O)N2[C@H](C(=O)Nc3nc(C(F)(F)F)ccc3C)C[C@@]3(C)C[C@@H]23)c2c(CF)cc(-c3cnc4cc(C)nn4c3)cc12 [Compound 46, (1R,3S,5R)-2-(2-(3-acetyl-7-(fluoromethyl)-5-(2-methylpyrazolo[1,5-a]pyr-imidin-6-yl)-1H-indol-1-yl)acetyl)-5-methyl-N-(3-methyl-6-(trifluorometh-yl)pyridin-2-yl)-2-azabi-cyclo[3.1.0]hexane-3-car-boxamide] | < 1000 nM |
| CC(=O)c1cn(CC(=O)N2[C@H](C(=O)Nc3nc(Br)ccc3Cl)C[C@@]3(C)C[C@@H]23)c2c(C)cc(-c3cnc4cc(C)nn4c3)cc12 [Compound 47, (1R,3S,5R)-2-(2-(3-acetyl-7-methyl-5-(2-methylpyr-azolo[1,5-a]pyrimidin-6-yl)-1H-indol-1-yl)acetyl)-N-(6-bromo-3-chloropyr-idin-2-yl)-5-methyl-2-aza-bicyclo[3.1.0]hexane-3-carboxamide] | < 1000 nM |
| CC(=O)c1cn(CC(=O)N2[C@H](C(=O)Nc3nc(C(F)(F)F)ccc3C)C[C@@]3(C)C[C@@H]23)c2c(C)c(F)c(-c3cnc4cc(C)nn4c3)cc12 [Compound 49, (1R,3S,5R)-2-(2-(3-acetyl-6-fluoro-7-methyl-5-(2-methylpyrazolo[1,5-a]pyr-imidin-6-yl)-1H-indol-1-yl)acetyl)-5-methyl-N-(3-methyl-6-(trifluorometh-yl)pyridin-2-yl)-2-azabi-cyclo[3.1.0]hexane-3-car-boxamide] | < 1000 nM |
| CC(=O)c1cn(CC(=O)N2[C@H](C(=O)Nc3nc(Br)ccc3C)C[C@@]3(C)C[C@@H]23)c2c(C)c(F)c(-c3cnc4cc(C)nn4c3)cc12 [Compound 50, (1R,3S,5R)-2-(2-(3-acetyl-6-fluoro-7-methyl-5-(2-methylpyrazolo[1,5-a]pyr-imidin-6-yl)-1H-indol-1-yl)acetyl)-N-(6-bromo-3-methylpyridin-2-yl)-5-methyl-2-zabicyclo[3.1.0] hexane-3-carboxamide] | < 1000 nM |
| CC(=O)c1cn(CC(=O)N2[C@H](C(=O)Nc3nc(C(F)(F)F)ccc3Cl)C[C@@]3(C)C[C@@H]23)c2c(C)cc(-c3cnc4cc(C)nn4c3)cc12 [Compound 51, (1R,3S,5R)-2-(2-(3-acetyl-7-methyl-5-(2-methylpyr-azolo[1,5-a]pyrimidin-6-yl)-1H-indol-1-yl)acetyl)-N-(3-chloro-6-(trifluoro-methyl)pyridin-2-yl)-5-methyl-2-azabicyclo[3.1.0] hexane-3-carboxamide] | < 1000 nM |
| COCc1ccc(C(F)(F)F)nc1NC(=O)[C@@H]1C[C@@]2(C)C[C@H]2N1C(=O)Cn1cc(C(C)=O)c2cc(-c3cnc(C)nc3)cc(C)c21 [Compound 52, (1R,3S,5R)-2-(2-(3-acetyl-7-methyl-5-(2-methylpyr-imidin-5-yl)-1H-indol-1-yl)acetyl)-N-(3-(methoxy-methyl)-6-(trifluorometh-yl)pyridin-2-yl)-5-methyl-2-azabicyclo[3.1.0]hexane-3-carboxamide] | < 1000 nM |
| COCc1ccc(C(F)(F)F)nc1NC(=O)[C@@H]1C[C@@]2(C)C[C@H]2N1C(=O)Cn1cc(C(C)=O)c2cc(-c3cnc4cc(C)nn4c3)cc(C)c21 [Compound 53, (1R,3S,5R)-2-(2-(3-acetyl-7-methyl-5-(2-methylpyr-azolo[1,5-a]pyrimidin-6-yl)-1H-indol-1-yl)acetyl)-N-(3-(methoxymethyl)-6-(trifluoromethyl)pyridin-2-yl)-5-methyl-2-azabicyclo [3.1.0]hexane-3-carbox-amide] | < 1000 nM |
| CC(=O)c1cn(CC(=O)N2[C@H](C(=O)Nc3nc(C(F)(F)F)cc(F)c3C)C[C@@]3(C)C[C@@H]23)c2c(C)cc(-c3cnc(C)nc3)cc12 [Compound 54, (1R,3S,5R)-2-(2-(3-acetyl-7-methyl-5-(2-methylpyr-imidin-5-yl)-1H-indol-1-yl)acetyl)-N-(4-fluoro-3-methyl-6-(trifluorometh-yl)pyridin-2-yl)-5-methyl-2-azabicyclo[3.1.0]hexane-3-carboxamide] | < 1000 nM |
| CC(=O)c1cn(CC(=O)N2[C@H](C(=O)Nc3nc(C(F)(F)F)ccc3C)C[C@@]3(C)C[C@@H]23)c2c(C)nc(-c3cnc4cc(C)nn4c3)cc12 [Compound 55, (1R,3S,5R)-2-(2-(3-acetyl-7-methyl-5-(2-methylpyr-azolo[1,5-a]pyrimidin-6-yl)-1H-pyrrolo[2,3-c]pyr-idin-1-yl)acetyl)-5-methyl-N-(3-methyl-6-(trifluoro-methyl)pyridin-2-yl)-2-azabicyclo[3.1.0]hexane-3-carboxamide] | < 1000 nM |
| CC(=O)c1cn(CC(=O)N2[C@H](C(=O)Nc3nc(C(F)(F)F)ccc3C)C[C@@]3(C)C[C@@H]23)c2c(C)nc(-c3ccc4nc(C)nn4c3)cc12 [Compound 56, (1R,3S,5R)-2-(2-(3-acetyl-7-methyl-5-(2-methyl-[1,2,4]triazolo[1,5-a]pyr-idin-6-yl)-1H-pyrrolo[2,3-c]pyridin-1-yl)acetyl)-5-methyl-N-(3-methyl-6-(trifluoromethyl)pyridin-2-yl)-2-azabicyclo[3.1.0] hexane-3-carboxamide] | < 1000 nM |
